Assay [1] concerns the target T1, Human immunodeficiency virus type 1 integrase (Human immunodeficiency virus 1, UniProt Q7ZJM1). The experiment in a line: Inhibition of HIV1 integrase-mediated integration activity.
Assay [2] has as its system Human immunodeficiency virus 1. The experiment in a line: Antiviral activity against HIV1 by focal infectivity assay. In kind it is functional, organism-based.
The target in assay [3] is T1, Human immunodeficiency virus type 1 integrase. The experiment in a line: Inhibition of HIV1 integrase-mediated 3'-processing activity.
Assay [4] can be described thus: Cytotoxicity against HeLa H1-JC.37 cells by MTS assay. In kind it is cell-based. As to conditions: Homo sapiens.
Assay [5] in a line: Selectivity ratio of EC50 for HIV1 to IC50 for HeLa H1-JC.37 cells. Format: functional.

Bounds are passed on as bounds.

T1 sequence (Q7ZJM1 whole entry): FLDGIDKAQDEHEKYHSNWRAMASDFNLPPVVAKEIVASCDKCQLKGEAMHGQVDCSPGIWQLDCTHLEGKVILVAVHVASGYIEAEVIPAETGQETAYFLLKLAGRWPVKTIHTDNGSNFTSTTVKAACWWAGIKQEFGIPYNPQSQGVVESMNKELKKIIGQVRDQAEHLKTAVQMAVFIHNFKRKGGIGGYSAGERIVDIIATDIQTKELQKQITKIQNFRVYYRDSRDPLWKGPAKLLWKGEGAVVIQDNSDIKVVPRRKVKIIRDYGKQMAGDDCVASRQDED

Take `O=S(=O)(/C=C/c1ccc2[nH]ccc2c1)CS(=O)(=O)/C=C/c1ccc2[nH]ccc2c1`: the IC50 is 95 µM in assay [1] and > 100 µM in assay [3]. Also, the EC50 in assay [2] is > 10 µM.

In the case of `O=C(O)c1ccc(/C=C/S(=O)(=O)CS(=O)(=O)/C=C/c2ccc(C(=O)O)cc2)cc1`, the IC50 in assay [1] and in assay [3] was 33 µM throughout. Also, the EC50 in assay [2] was > 10 µM.

In the case of `O=S(=O)(CCc1ccccc1)CS(=O)(=O)CCc1ccccc1`, the IC50 is > 150 µM in assay [4], > 100 µM in assay [1] and > 100 µM in assay [3]. In addition, the EC50 in assay [2] was > 10 µM.

Take `O=S(=O)(CCc1cc(F)c(F)c(F)c1)CS(=O)(=O)CCc1cc(F)c(F)c(F)c1`: the IC50 in assay [4] was determined as 110 µM; in assay [1] it was 333 µM; in assay [3], 900 µM. For the same compound, in assay [2], the EC50 is > 10 µM.

Turning to `O=S(=O)(/C=C/c1ccc2c(c1)OCCO2)CS(=O)(=O)/C=C/c1ccc2c(c1)OCCO2`, the IC50 in assay [1] and in assay [3] was > 100 µM in each case. Further, in assay [2], the EC50 is > 10 µM.

As to `COc1ccc(Br)cc1/C=C/S(=O)(=O)CS(=O)(=O)/C=C/c1cc(Br)ccc1OC`, the concentration for half-maximal inhibition (IC50) in assay [1] and in assay [3] was > 100 µM throughout. In addition, in assay [2], the EC50 was > 10 µM.

In the case of `COc1cc(OC)c(OC)cc1/C=C/S(=O)(=O)CS(=O)(=O)/C=C/c1cc(OC)c(OC)cc1OC`, the half-maximal inhibitory concentration (IC50) in assay [1] and in assay [3] was > 1000 µM throughout. The EC50 in assay [2] is > 10 µM.

For the compound `O=S(=O)(/C=C/c1cc(OCc2ccccc2)c(OCc2ccccc2)c(OCc2ccccc2)c1)CS(=O)(=O)/C=C/c1cc(OCc2ccccc2)c(OCc2ccccc2)c(OCc2ccccc2)c1`, the IC50 in assay [1] and in assay [3] was > 100 µM throughout. For the same compound, the EC50 in assay [2] was > 10 µM.

Take `COc1cc(Br)c(/C=C/S(=O)(=O)CS(=O)(=O)/C=C/c2cc(OC)c(OC)cc2Br)cc1OC`: the IC50 in assay [1] worked out at 500 µM; in assay [3], 850 µM. The EC50 in assay [2] is > 10 µM.

On to `O=S(=O)(/C=C/c1ccccc1)CS(=O)(=O)/C=C/c1ccccc1`, for which the IC50 in assay [4] is 12 µM; in assay [1] it was > 100 µM; in assay [3] it was > 100 µM. The compound further yielded an EC50 in assay [2] of 1.2 µM. In addition, the “Ratio IC50/EC50” value in assay [5] is 9.9.

As to `COc1cc(/C=C/S(=O)(=O)CS(=O)(=O)/C=C/c2cc(Br)c(OC)c(OC)c2)cc(Br)c1OC`, the IC50 in assay [1] and in assay [3] was > 100 µM each time. For the same compound, in assay [2], the EC50 was > 10 µM.

As for `O=S(=O)(/C=C/c1ccc(OCc2ccccc2)c(OCc2ccccc2)c1)CS(=O)(=O)/C=C/c1ccc(OCc2ccccc2)c(OCc2ccccc2)c1`, the IC50 in assay [1] and in assay [3] was > 100 µM in each case. Further, the EC50 in assay [2] is > 10 µM.

As to `O=S(=O)(/C=C/c1cc(Cl)ccc1Cl)CS(=O)(=O)/C=C/c1cc(Cl)ccc1Cl`, the IC50 was 2.6 µM in assay [4], > 100 µM in assay [1] and > 100 µM in assay [3]. Also, a half-maximal response in assay [2] (EC50) required 3.4 µM. Besides, the “Ratio IC50/EC50” value in assay [5] was found to be 0.77.

Regarding `O=S(=O)(/C=C/c1ccccc1OCc1ccccc1)CS(=O)(=O)/C=C/c1ccccc1OCc1ccccc1`, the IC50 in assay [1] and in assay [3] was > 100 µM in each case. In addition, in assay [2], the EC50 was > 10 µM.

For the compound `COc1cc(/C=C/S(=O)(=O)CS(=O)(=O)/C=C/c2cc(OC)c(OC)cc2[N+](=O)[O-])c([N+](=O)[O-])cc1OC`, the IC50 in assay [1] and in assay [3] was 500 µM each time. In assay [2], the concentration giving a half-maximal response (EC50) is > 10 µM.

Consider `O=S(=O)(/C=C/c1cccc(Br)n1)CS(=O)(=O)/C=C/c1cccc(Br)n1`, for which the 50% inhibitory concentration (IC50) in assay [1] is 900 µM; in assay [3] it was > 1000 µM. In addition, the EC50 in assay [2] is > 10 µM.

For `O=S(=O)(CCc1ccc(O)c(O)c1)CS(=O)(=O)CCc1ccc(O)c(O)c1`, the IC50 was 170 µM in assay [4], 17 µM in assay [1] and 40 µM in assay [3]. Besides, the EC50 in assay [2] is 6.2 µM. For the same compound, in assay [5], the “Ratio IC50/EC50” value is given as 27.

Regarding `O=S(=O)(/C=C/c1cc(F)c(F)c(F)c1)CS(=O)(=O)/C=C/c1cc(F)c(F)c(F)c1`, the IC50 is 7.8 µM in assay [4], > 100 µM in assay [1] and > 100 µM in assay [3]. For the same compound, it took 2 µM to reach a half-maximal effect in assay [2] (EC50). Moreover, the “Ratio IC50/EC50” value in assay [5] stood at 3.9.

(Values after ChEMBL document CHEMBL1144536, “Ring substituent effects on biological activity of vinyl sulfones as inhibitors of HIV-1” (Bioorg Med Chem, 2007).)
